Experimental data from patent US11613542B2, “Sulfonylureas and sulfonylthioureas as NLRP3 inhibitors” (Inflazome Limited, priority 2017, dated 2023).
Where a name gives a salt, the structure may show the parent alone.

Molecular target: T1, NLRP3 (Homo sapiens, UniProt Q96P20)
Test: THP-1 cells pyroptosis assay
Assay type: cell-based
Design: Seed THP-1 cells (25,000 cells/well) containing 1.0 μg/ml LPS; host or cells: THP-1 cells, LPS-primed, nigericin-stimulated
Conditions: THP-1 cells, 1.0 μg/ml LPS, compound 3 hrs, nigericin 5 μM 1 hr, resazurin readout; read-out: THP IC50
Description: NLRP and Pyroptosis It is well established that the activation of NLRP3 leads to cell pyroptosis and this feature plays an important part in the manifestation of clinical disease (Yan-gang Liu et al., Cell Death &Disease, 2017, 8(2), e2579; Alexander Wree et al., Hepatology, 2014, 59(3), 898-910; Alex Baldwin et al., Journal of Medicinal Chemistry, 2016, 59(5), 1691-171; Ema Ozaki et al., Journal of Inflammation Research, 2015, 8, 15-27; Zhen Xie & Gang Zhao, Neuroimmunology Neuroinflammation, 2014, 1(2), 60-65; Mattia Cocco et al., Journal of Medicinal Chemistry, 2014, 57(24), 10366-10382; T. Satoh et al., Cell Death &Disease, 2013, 4, e644). Therefore, it is anticipated that inhibitors of NLRP3 will block pyroptosis, as well as the release of pro-inflammatory cytokines (e.g. […]) from the cell. THP-1 Cells: Culture and Preparation THP-1 cells (ATCC #TIB-202) were grown in RPMI containing L-glutamine (Gibco #11835) supplemented with imM sodium pyruvate (Sigma #S8636) and penicillin (100 units/ml)/streptomycin (0.1 mg/ml) (Sigma #P4333) in 10% Fetal Bovine Serum (FBS) (Sigma #Fo804). The cells were routinely passaged and grown to confluency (˜10^6 cells/ml). On the day of the experiment, THP-1 cells were harvested and resuspended into RPMI medium (without FBS). The cells were then counted and viability (>90%) checked by Trypan blue (Sigma #T8154). Appropriate dilutions were made to give a concentration of 625,000 cells/ml. To this diluted cell solution was added LPS (Sigma #L4524) to give a […] Final Assay Concentration (FAC). 40 μl of the final preparation was aliquoted into each well of a 96-well plate. The plate thus prepared was used for compound screening. THP-1 Cells Pyroptosis Assay The following method step-by-step assay was followed for compound screening. • 1. Seed THP-1 cells (25,000 cells/well) containing 1.0 μg/ml LPS in 40 μl of RPMI medium (without FBS) in 96-well, black walled, clear bottom cell culture plates coated with poly-D-lysine (VWR #734-0317) • 2. Add […] compound (8 points half-log dilution, with 10 μM top dose) or vehicle (DMSO 0.1% FAC) to the appropriate wells • 3. […] Add 5 μl nigericin (Sigma #N7143) (FAC 5 μM) to all wells • 5. […] At the end of the incubation period, spin plates at 300 xg for 3 mins and remove supernatant • 7. Then add 50 μl of resazurin (Sigma #R7017) (FAC 100μ M resazurin in RPMI medium without FBS) and incubate plates for a further 1-2 hrs at 37° C. and 5% CO2 • 8. Plates were read in an Envision reader at Ex 560 nm and Em 590 nm • 9. IC50 data is fitted to a non-linear regression equation (log inhibitor vs response-variable slope 4-parameters) [table]

T1 sequence (Q96P20 whole entry): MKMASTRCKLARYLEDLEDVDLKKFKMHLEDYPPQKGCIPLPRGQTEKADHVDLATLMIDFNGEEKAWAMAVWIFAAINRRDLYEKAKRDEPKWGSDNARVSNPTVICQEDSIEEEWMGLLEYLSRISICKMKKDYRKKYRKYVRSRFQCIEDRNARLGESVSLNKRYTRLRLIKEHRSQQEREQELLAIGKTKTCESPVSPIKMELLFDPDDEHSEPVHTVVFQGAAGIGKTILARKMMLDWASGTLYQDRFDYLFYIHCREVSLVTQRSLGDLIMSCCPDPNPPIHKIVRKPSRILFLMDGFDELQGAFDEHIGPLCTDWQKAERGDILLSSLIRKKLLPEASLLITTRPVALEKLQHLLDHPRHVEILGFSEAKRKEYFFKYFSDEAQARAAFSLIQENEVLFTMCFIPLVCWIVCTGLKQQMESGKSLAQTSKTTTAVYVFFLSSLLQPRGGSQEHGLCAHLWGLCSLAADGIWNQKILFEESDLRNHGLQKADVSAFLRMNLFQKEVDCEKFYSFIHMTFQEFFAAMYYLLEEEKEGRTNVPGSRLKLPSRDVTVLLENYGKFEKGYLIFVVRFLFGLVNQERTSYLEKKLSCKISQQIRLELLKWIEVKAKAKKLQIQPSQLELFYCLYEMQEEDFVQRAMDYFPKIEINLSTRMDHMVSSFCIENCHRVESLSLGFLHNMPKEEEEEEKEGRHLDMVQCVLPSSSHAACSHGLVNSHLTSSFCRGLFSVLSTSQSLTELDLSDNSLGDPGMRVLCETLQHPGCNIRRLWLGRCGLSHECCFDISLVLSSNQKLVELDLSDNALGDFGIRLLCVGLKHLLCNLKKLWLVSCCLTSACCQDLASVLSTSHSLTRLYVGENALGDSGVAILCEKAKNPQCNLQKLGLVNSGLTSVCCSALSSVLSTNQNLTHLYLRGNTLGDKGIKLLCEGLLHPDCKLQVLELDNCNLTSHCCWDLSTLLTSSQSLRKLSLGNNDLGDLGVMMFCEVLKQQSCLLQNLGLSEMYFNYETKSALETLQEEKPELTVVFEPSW

Structure (SMILES) | IC50 [µM]
CN(C)C(=O)Cn1ccc(S(=O)(=O)NC(=O)Nc2c3c(cc4c2CCC4)CCC3)n1 [Example 1, 2-(3-(N-((1,2,3,5,6,7-Hexahydro-s-indacen-4-yl)carbamoyl)sulfamoyl)-1H-pyrazol-1-yl)-N,N-dimethylacetamide, sodium salt] | < 0.64
CN(CCO)Cc1cc(S(=O)(=O)NC(=O)Nc2c3c(cc4c2CCC4)CCC3)nn1C [Example 124, N-((1,2,3,5,6,7-Hexahydro-s-indacen-4-yl)carbamoyl)-5-(((2-hydroxyethyl)(methyl)amino)methyl)-1-methyl-1H-pyrazole-3-sulfonamide] | < 0.16
CC(C)c1cccc(C(C)C)c1NC(=O)NS(=O)(=O)c1cc(C(=O)N(C)CC#N)n(C)n1 [Example 140, N-(Cyanomethyl)-3-(N-((2,6-diisopropylphenyl)carbamoyl)sulfamoyl)-N,1-dimethyl-1H-pyrazole-5-carboxamide] | < 10
CC(C)NC(=O)c1cc(S(=O)(=O)NC(=O)Nc2c3c(cc4c2CCC4)CCC3)nn1C [Example 146, 3-(N-((1,2,3,5,6,7-Hexahydro-s-indacen-4-yl)carbamoyl)sulfamoyl)-N-isopropyl-1-methyl-1H-pyrazole-5-carboxamide] | < 10
CCN(CC)C(=O)c1cc(S(=O)(=O)NC(=O)Nc2c(C(C)C)cc(F)cc2C(C)C)nn1C [Example 148, N,N-Diethyl-3-(N-((4-fluoro-2,6-diisopropylphenyl)carbamoyl)sulfamoyl)-1-methyl-1H-pyrazole-5-carboxamide, sodium salt] | < 0.64
CCN(CC)C(=O)c1cc(S(=O)(=O)NC(=O)Nc2c(C(C)C)cccc2C(C)C)nn1C [Example 157, 3-(N-((2,6-Diisopropylphenyl)carbamoyl)sulfamoyl)-N,N-diethyl-1-methyl-1H-pyrazole-5-carboxamide] | < 2.56
Cn1nc(S(=O)(=O)NC(=O)Nc2c3c(cc4c2CCC4)CCC3)cc1C(=O)N1CCCC1 [Example 159, N-((1,2,3,5,6,7-Hexahydro-s-indacen-4-yl)carbamoyl)-1-methyl-5-(pyrrolidine-1-carbonyl)-1H-pyrazole-3-sulfonamide] | < 2.56
Cn1nc(S(=O)(=O)NC(=O)Nc2c3c(cc4c2CCC4)CCC3)cc1C(=O)N1CC(F)C1 [Example 161, 5-(3-Fluoroazetidine-1-carbonyl)-N-((1,2,3,5,6,7-hexahydro-s-indacen-4-yl)carbamoyl)-1-methyl-1H-pyrazole-3-sulfonamide, partial ammonium salt] | < 2.56

Continued, values first:

IC50 [µM] | Structure (SMILES)
< 2.56 | CC(C)c1cccc(C(C)C)c1NC(=O)NS(=O)(=O)c1cc(C(=O)N2CCCC2)n(C)n1 [Example 163, N-((2,6-Diisopropylphenyl)carbamoyl)-1-methyl-5-(pyrrolidine-1-carbonyl)-1H-pyrazole-3-sulfonamide]
< 2.56 | CNC(=O)c1cc(S(=O)(=O)NC(=O)Nc2c3c(cc4c2CCC4)CCC3)nn1C [Example 166, 3-(N-((1,2,3,5,6,7-Hexahydro-s-indacen-4-yl)carbamoyl)sulfamoyl)-N,1-dimethyl-1H-pyrazole-5-carboxamide]
< 2.56 | CC(C)c1cccc(C(C)C)c1NC(=O)NS(=O)(=O)c1cc(C(=O)N(C)CCO)n(C)n1 [Example 173, 3-(N-((2,6-Diisopropylphenyl)carbamoyl)sulfamoyl)-N-(2-hydroxyethyl)-N,1-dimethyl-1H-pyrazole-5-carboxamide]
< 10 | Cn1nc(S(=O)(=O)NC(=O)Nc2c3c(cc4c2CCC4)CCC3)cc1C(=O)NCCO [Example 174, 3-(N-((1,2,3,5,6,7-Hexahydro-s-indacen-4-yl)carbamoyl)sulfamoyl)-N-(2-hydroxyethyl)-1-methyl-1H-pyrazole-5-carboxamide, partial ammonium salt]
< 10 | COCCNC(=O)c1cc(S(=O)(=O)NC(=O)Nc2c3c(cc4c2CCC4)CCC3)nn1C [Example 175, 3-(N-((1,2,3,5,6,7-Hexahydro-s-indacen-4-yl)carbamoyl)sulfamoyl)-N-(2-methoxyethyl)-1-methyl-1H-pyrazole-5-carboxamide, partial ammonium salt]
< 2.56 | CN(C)CCn1cc(S(=O)(=O)NC(=O)Nc2c3c(cc4c2CCC4)CCC3)cn1 [Example 182, 1-(2-(Dimethylamino)ethyl)-N-((1,2,3,5,6,7-hexahydro-s-indacen-4-yl)carbamoyl)-1H-pyrazole-4-sulfonamide]
< 2.56 | CC(C)c1cc(Cl)cc(C(C)C)c1NC(=O)NS(=O)(=O)c1ccn(C(C)(C)CN(C)C)n1 [Example 200, N-((4-Chloro-2,6-diisopropylphenyl)carbamoyl)-1-(1-(dimethylamino)-2-methylpropan-2-yl)-1H-pyrazole-3-sulfonamide]
< 2.56 | CC(C)c1cc(F)cc(C(C)C)c1NC(=O)NS(=O)(=O)c1ccn(C(C)(C)CN(C)C)n1 [Example 201, 1-(1-(Dimethylamino)-2-methylpropan-2-yl)-N-((4-fluoro-2,6-diisopropylphenyl)carbamoyl)-1H-pyrazole-3-sulfonamide]
< 0.64 | C[C@@H](CN(C)C)n1ccc(S(=O)(=O)NC(=O)Nc2c3c(cc4c2CCC4)CCC3)n1 [Example 203, (S)-1-(1-(Dimethylamino)propan-2-yl)-N-((1,2,3,5,6,7-hexahydro-s-indacen-4-yl)carbamoyl)-1H-pyrazole-3-sulfonamide]

Test system: not listed separately
Test: Pharmacokinetic parameters in male Sprague Dawley rats (intravenous and oral administration)
Assay type: in vivo
Conditions: intravenous administration, rat plasma; dose per compound (mg/kg)
Procedure: Pharmacokinetic parameters were determined in male Sprague Dawley rats (Charles River, UK, 250-350 g; or Vital River Laboratory Animal Technology Co Ltd, Beijing, China, 7-9 weeks old). Animals were individually housed during the study and maintained under a 12 h light/dark cycle. Animals had free access to food and water except that some orally dosed animals were food deprived overnight prior to the study.
For intravenous administration, compounds were formulated as a solution in water or DMSO:PBS [10:90] in 2 mL/kg dosing volume and administered via tail vein. For oral administration, compounds were formulated as a solution in water or DMSO:water [10:90] in 5 mL/kg dosing volume and administered orally.
Serial blood samples (about 120-300 μL) were taken from each animal at each of 8 time-points post dose (0.083, 0.25, 0.5, 1, 2, 4, 8 and 24 h) or at each of 12 time-points post dose (0.03, 0.1, 0.17, 0.25, 0.5, 1, 2, 4, 6, 8,12 and 24 h) or pre-dose and at each of 9 time-points post dose (0.25, 0.5, 1, 2, 4, 6, 8, 12 and 24 h). Samples were held on ice for no longer than 30 minutes before centrifugation (10,000 rpm (8,385 g) for 3 minutes; or 5,696 rpm (3,000 g) for 15 minutes) for plasma generation. Plasma was frozen on dry ice prior to bioanalysis. PK parameters were generated from LC-MS/MS data using Dotmatics or Phoenix WinNonlin 6.3 software.

AUC [ng·h/mL] | Cl [mL/min/kg] | T1/2 [h] | Vdss [L/kg] | Structure (SMILES)
2067.0 | 8.1 | 14.2 | 1.9 | CN(CCO)Cc1cc(S(=O)(=O)NC(=O)Nc2c3c(cc4c2CCC4)CCC3)nn1C [Example 124, N-((1,2,3,5,6,7-Hexahydro-s-indacen-4-yl)carbamoyl)-5-(((2-hydroxyethyl)(methyl)amino)methyl)-1-methyl-1H-pyrazole-3-sulfonamide]

Molecular target: T1, NLRP3
Test: Human whole blood IL1β release assay
Assay type: cell-based
Design: Human whole blood in Li-heparin tubes was obtained from healthy donors; from tissue; host or cells: human whole blood from healthy donors, LPS-primed, nigericin-stimulated
Conditions: human whole blood, 1 μg/ml LPS, compound 3 hrs, nigericin 10 μM 1 hr, IL-1β AlphaLisa; read-out: HWB IC50
Procedure: Human Whole Blood IL1β Release Assay
For systemic delivery, the ability to inhibit NLRP3 when the compounds are present within the bloodstream is of great importance. For this reason, the NLRP3 inhibitory activity of a number of compounds in human whole blood was investigated in accordance with the following protocol.
Human whole blood in Li-heparin tubes was obtained from healthy donors from a volunteer donor panel. • 1. Plate out 80 μl of whole blood containing 1 μg/ml of LPS in 96-well, clear bottom cell culture plate (Corning #3585) • 2. Add 10 μl compound (8 points half-log dilution with 10 μM top dose) or vehicle (DMSO 0.1% FAC) to the appropriate wells • 3. Incubate for 3 hrs at 37° C., 5% CO2 • 4. Add 10 μl Nigericin (Sigma #N7143) (10 μM FAC) to all wells • 5. Incubate for 1 hr at 37° C., 5% CO2 • 6. At the end of the incubation period, spin plates at 300 xg for 5 mins to pellet cells and remove 20 μl of supernatant and add to 96-well v-bottom plates for IL-1β analysis (note: these plates containing the supernatants can be stored at −80° C. to be analysed at a later date) • 7. IL-1β was measured according to the manufacturer protocol (Perkin Elmer-AlphaLisa IL-1 Kit AL220F-5000) • 8. IC50 data is fitted to a non-linear regression equation (log inhibitor vs response-variable slope 4-parameters)

IC50 [µM] | Structure (SMILES)
< 10 | CN(C)C(=O)Cn1ccc(S(=O)(=O)NC(=O)Nc2c3c(cc4c2CCC4)CCC3)n1 [Example 1, 2-(3-(N-((1,2,3,5,6,7-Hexahydro-s-indacen-4-yl)carbamoyl)sulfamoyl)-1H-pyrazol-1-yl)-N,N-dimethylacetamide, sodium salt]
